This is an account of results in ChEMBL document CHEMBL5729483, “Compositions and methods for treating infections” (2022).

Each structure is given as a SMILES string.

The target of the assay is Bifunctional dihydrofolate reductase-thymidylate synthase (Plasmodium falciparum K1, UniProt P13922). The experiment in a line: TBD: TBD. Set-up: species or system Isolate K1 / Thailand.
Chain of Bifunctional dihydrofolate reductase-thymidylate synthase (P13922 whole entry): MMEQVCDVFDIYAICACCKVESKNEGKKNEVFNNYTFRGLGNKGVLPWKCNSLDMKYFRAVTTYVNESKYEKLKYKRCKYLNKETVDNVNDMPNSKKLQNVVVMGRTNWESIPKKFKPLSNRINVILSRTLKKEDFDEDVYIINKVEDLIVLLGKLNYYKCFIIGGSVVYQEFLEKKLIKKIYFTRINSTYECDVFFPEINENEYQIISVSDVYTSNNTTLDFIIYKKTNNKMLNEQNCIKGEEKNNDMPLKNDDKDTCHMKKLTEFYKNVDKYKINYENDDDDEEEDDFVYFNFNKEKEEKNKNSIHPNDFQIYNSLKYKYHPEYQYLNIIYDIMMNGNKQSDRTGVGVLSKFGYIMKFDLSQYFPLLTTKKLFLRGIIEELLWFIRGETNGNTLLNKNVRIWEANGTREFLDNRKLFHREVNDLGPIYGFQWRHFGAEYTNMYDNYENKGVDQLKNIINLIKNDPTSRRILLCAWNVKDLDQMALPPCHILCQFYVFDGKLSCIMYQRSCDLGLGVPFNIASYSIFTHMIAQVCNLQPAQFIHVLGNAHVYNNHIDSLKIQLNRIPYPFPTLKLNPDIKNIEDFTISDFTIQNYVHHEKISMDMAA

`Nc1ncc(N2CCN(c3cccc(C4CCOCC4)c3)CC2)c(N)n1` had an IC50 of 1.1 nM.
